Among the data in patent US5703092A, “Hydroxamic acid compounds as metalloprotease and TNF inhibitors” (The DuPont Merck Pharmaceutical Company, priority 1996, dated 1997) are Cmax, Km and Vmax values, retold here.

A short description of series [1]: Ex Vivo Assay for Bioavailability of MMP-3 Inhibitors (plasma level after dosing). Type of series: in vivo. To be noted: rat, po; rats, dosed orally at 100 mg/kg; plasma level read via MMP-3 inhibition against a spiked plasma standard curve. How it is done: Ex Vivo Assay for Bioavailability of MMP-3 Inhibitors
Blood was collected by cardiac puncture from rats at different times after dosing I.V., I.P., or P.O. with compound in order to determine the levels of inhibitor present. Plasma was extracted with 10% TCA in 95% methanol, and placed on ice for 10 minutes. The plasma was then centrifuged for 15 minutes at 14,000 rpm in an Eppendorf microcentrifuge. The supernatant was removed, recentrifuged, and the resulting supernatant was diluted 1:10 in 50 mM tricine, pH 8.5. The pH of the sample was adjusted to 7.5, and then assayed in the MMP-3 substance P fluorescent enzymatic assay. Plasma from naive rats was extracted by the same method and used as a negative control. This plasma was also used to prepare a spiked plasma curve of the compound of interest. Known concentrations of the compound were added to control plasma, the plasma was extracted by the same method, and then assayed in the MMP-3 enzymatic assay. A standard curve was prepared that related percent inhbition in the MMP-3 assay to the concentration of drug added in the spiked samples. Based on the percent inhibition in the presence of plasma from dosed rats, the concentration of compound was determined using the standard curve.

In the next series the test system is truncated MMP-3. Briefly: Bisacetylated Substance P/MMP-3 Fluorescent Assay. In kind it is biochemical. To be noted: bisacetylated substrate with MMP-3. An excerpt: Bisacetylated Substance P/MMP-3 Fluorescent Assay
Sequence of truncated MMP-3 (P08254 100-272 limits assumed): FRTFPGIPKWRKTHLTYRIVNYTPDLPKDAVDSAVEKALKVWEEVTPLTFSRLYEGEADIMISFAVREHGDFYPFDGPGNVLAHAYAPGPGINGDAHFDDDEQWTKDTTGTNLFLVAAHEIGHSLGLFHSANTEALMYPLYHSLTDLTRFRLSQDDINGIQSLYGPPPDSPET
A high capacity enzymatic assay was developed to detect potential inhibitors of MMP-3. The assay uses a derivative of a peptide substrate, substance P (Arg-Pro-Lys-Pro-Gln-Gln-Phe-Phe-Gly-Leu-Met), which is cleaved by MMP-3 exclusively at the glutamine-phenylalanine bond. In order to adapt this assay for high throughput screening, we have developed a fluorimetric method of product detection. The production of the hydrolysis product, substance P 7-11, is measured by reaction with fluorescamine, a fluorogenic compound which reacts with the primary amine of this fragment. The substance P substrate is bisacetylated to block the primary amines of the intact substrate. Thus, the resulting fluorescence represents generation of product (7-11 peptide) formed upon cleavage by MMP-3, and is quantitated using a standard curve prepared with known concentrations of 7-11 peptide.
To evaluate inhibition of MMP-3, compounds were prepared at a concentration of 10 mM in 100% methanol, and then further diluted to a 20× molar stock. Five microliters of each drug stock was added to the assay in the presence of 20 nM truncated MMP-3 in 67.5 mM tricine (pH 7.5), 10 mM CaCl2, 40 mM NaCl, and 0.005% Brij 35 in a final volume of 100 microliters. Bisacetylated substance P ([…]) was added, and the assay was run for 1 hour at 25° C. […]

As usually defined, the Cmax is the highest concentration seen after dosing. `CC(C)C[C@@H](C(=O)N[C@H](c1nc2cc(Cl)ccc2[nH]1)C(C)(C)C)[C@H](O)C(=O)NO` [Example 86, N-[1(S)-(5-chloro-2-benzimidazolyl)-2,2,2-trimethylethyl]-[3-(N-hydroxyaminocarbonyl)-3(S)-hydroxy-2(R)-isobutyl]propanamide]: the highest level in series [1] (Cmax) was 960 nM.

In general, Km refers to the substrate concentration at which the rate is half of its maximum. As for “bisacetylated substrate: bisacetylated derivative of peptide substrate substance P (Arg-Pro-Lys-Pro-Gln-Gln-Phe-Phe-Gly-Leu-Met), cleaved by MMP-3”, in the series on truncated MMP-3, the Km worked out at 769 ± 52 µM and the Vmax was 0.090±0.003 nmoles 7-11 peptide/min.
